In patent US5126057A, “Disinfecting with N,N'-dihaloimidazolidin-4-ones” (Auburn Research Foundation, priority 1991, dated 1992):

Tests used:
[1] = Stability in synthetic halogen demand water (SDW); assay type: physicochemical; settings: 4° C.; for stability (in words): heavy halogen demand (SDW), pH 9.5; for remaining at 0.5 h: pH 9.5, 0.5 hrs; for remaining at 24 h: pH 9.5, 24.0 hrs
Method: A synthetic halogen demand water (SDW) was prepared by mixing the following substances with demand-free water (DFW): 375 milligrams per liter of each of the inorganic salts sodium chloride, potassium chloride, calcium chloride, and magnesium chloride; 50 milligrams per liter of Bentonite clay; 30 milligrams per liter of humic acid; 0.01 percent final concentration of heat-treated horse serum; and 5×10^5 cells per milliliter of heat-killed Saccharomyces cerevisiae yeast cells. The SDW solution was buffered with 0.01 Molar borate/sodium hydroxide to a pH of 9.5 and held at 4° C. during the experiments. The conditions of high ionic strength, turbidity, and organic material, and alkaline pH at low temperature, are viewed as a worst-case scenario for disinfection applications and thus should provide the optimum test of stability for the new compounds.
In separate flasks were dissolved compounds 1, 2, 3, and 5 to a starting concentration of 10 milligrams per liter total potential positive chlorine or its molar equivalent (16.25 milligrams per liter) in total potential positive halogen for Compound 5. Aliquots were withdrawn frequently over a period of more than 90 hours, and the percent positive halogen remaining was determined by standard iodometric titration.

[2] = Laboratory stability in halogen demand-free water (DFW), iodometric titration; assay type: physicochemical; settings: for remaining at 23.52 h / remaining at 119.28 h / remaining at 168 h / remaining at 336 h / remaining at 504 h / remaining at 672 h / remaining at 840 h / remaining at 1008 h: demand-free water
Method: The stability of 1,3-dichloro-2,2,5,5-tetramethylimidazolidin-4-one (Compound 1) in halogen demand-free water was determined at 22° C. and pH values of 4.5, 7.0, and 9.5, and the results were compared to those for free chlorine as supplied by calcium hypochlorite. The demand-free water (DFW) was prepared by chlorination of distilled, deionized water buffered to the appropriate pH followed by dechlorination (of the excess free chlorine) by exposure to direct sunlight until no free chlorine remained. This treatment insured that all halogen demand in the water was neutralized. Then Compound 1 and calcium hypochlorite were separately dissolved in identical DFW (buffered to an appropriate pH) solutions to the same final total chlorine concentrations (10 milligrams per liter potential positive chlorine). The solutions in separate flasks, which were stoppered with porous, sterile cotton plugs to allow free exchange with laboratory air, were then held at a constant temperature of 22° C. by means of a controlled water bath for a period of several weeks. Aliquots were withdrawn periodically (at least weekly), and the total positive chlorine remaining was determined in triplicate by standard iodometric titration. […]
The stabilities of 1,3-dibromo-2,2,5,5-tetramethylimidazolidin-4-one (Compound 4) and 1-bromo-3-chloro-2,2,5,5-tetramethylimidazolidin-4-one (Compound 5) in halogen demand-free water (DFW) were determined at 22° C. and pH values of 7.0 and 9.5 using the same procedures as discussed under example 9. Given the instability of Compound 1 at pH 4.5 (example 9), it was deemed unnecessary to test compounds 4 and 5 at that pH. The two compounds were dissolved in DFW buffered to the appropriate pH in separate flasks and held at a temperature of 22° C. by means of a constant temperature bath. The starting concentrations of total potential positive halogen in the two solutions were 22.6 milligrams per liter for Compound 4 and 16.25 milligrams per liter for Compound 5; these concentrations represent the molar equivalents in total potential positive halogen to that used for Compound 1 in example 9. The solutions were analyzed in the manner described in example 9.

bacteria = assay: Bactericidal efficacy, summary over all bacteria and conditions; assay type: cell-based, Staphylococcus aureus and Pseudomonas aeruginosa
Method: (§1) The halogenated imidazolidin-4-one derivatives prepared as in examples 3, 5, and 6 (Compounds 1, 5, and 3, respectively) were tested as bactericides against the microorganisms Staphylococcus aureus (ATCC25923) and Pseudomonas aeruginosa (ATCC 27853) in demand-free water (DFW) as a function of pH and temperature and in a synthetic-demand water (SDW) at pH 9.5 and 4° C. The demand-free and synthetic-demand waters were prepared as described in examples 7 and 12, respectively.
(§2) For the bactericidal efficacy tests 50 milliliters of buffered DFW or SDW were placed in a 125 milliliter flask which was then inoculated with the organism to be tested such that the final density of the organism was about 1×10^6 cfu/ml (colony forming units per milliliter). The inoculated solution was allowed to equilibrate at the test temperature by immersion in a thermostated water bath for 15 minutes with constant stirring. Then an appropriate amount of an aqueous solution containing the test halogenated imidazolidin-4-one compound maintained at the same test temperature was added to the inoculated solution to bring the total concentration of potential positive halogen (Cl^+ or Cl^+ /Br^+) in the mixture to a predetermined level (10 parts per million and 5 parts per million Cl^+ from compounds 1 and 3; the molar equivalent in Cl^+ /Br^+ from Compound 5). 1 milliliter aliquots were removed from the test mixture at various predetermined times, and the active halogen was quenched by 1 milliliter portions of sterile 0.02 Normal sodium thiosulfate. Serial dilutions were made into sterile saline, and three 25 microliter aliquots of each of the resulting dilutions were applied to the dried surface of a Petri dish containing tryptic soy and nutrient agars for plating S. aureus and P. aeruginosa, respectively. After 48 hours at 37° C. the three replicates for each dilution were counted and averaged. This average was used to compute the cfu/ml for that particular aliquot. Inactivation of the organism was considered to be at least 99.9999 percent when no colonies were detected in the thiosulfate quenched aliquots.

[3] = test system: Staphylococcus aureus (ATCC25923); assay: Bactericidal efficacy, percent inactivation of S. aureus; assay type: cell-based; settings: for killing at 5 ppm: DFW; for killing at 10 ppm: SDW
Method: as §1, §2

[4] = test system: Pseudomonas aeruginosa (ATCC 27853); assay: Bactericidal efficacy, percent inactivation of P. aeruginosa; assay type: cell-based; settings: pH 7.0, 22° C., DFW
Method: as §1, §2

[5] = synthetic halogen demand water, SDW, read-out: Percent Halogen Remaining
[6] = ATCC25923, 5 min, pH 4.5, pH 4.5, 22° C., 5 minutes
[7] = ATCC25923, 5 min, pH 7, pH 7.0, 22° C., 5 minutes
[8] = ATCC25923, 5 min, pH 9.5, pH 9.5, 4° C., 5 minutes
[9] = ATCC25923, 5 min, pH 9.5, pH 9.5, 22° C., 5 minutes
[10] = ATCC25923, 10 min, pH 4.5, pH 4.5, 22° C., 10 minutes
[11] = ATCC25923, 10 min, pH 7, pH 7.0, 22° C., 10 minutes
[12] = ATCC25923, 10 min, pH 9.5, pH 9.5, 4° C., 10 minutes
[13] = ATCC25923, 10 min, pH 9.5, pH 9.5, 22° C., 10 minutes

Structure (SMILES): CC1(C)NC(=O)C(C)(C)N1Cl [Compound 3, 1-chloro-2,2,5,5-tetramethylimidazolidin-4-one]
- stability (in words) [1]: extremely stable in the presence of heavy demand
- remaining at 0.083 h ([1]; synthetic halogen demand water, SDW, pH 9.5, 0.083 hrs, read-out: Percent Halogen Remaining): 99.2%
- remaining at 0.5 h [1, 5]: 96.6%
- remaining at 2 h ([1]; synthetic halogen demand water, SDW, pH 9.5, 2.0 hrs, read-out: Percent Halogen Remaining): 95.4%
- remaining at 8 h ([1]; synthetic halogen demand water, SDW, pH 9.5, 8.0 hrs, read-out: Percent Halogen Remaining): 94.1%
- remaining at 24 h [1, 5]: 94.9%
- remaining at 48 h ([1]; synthetic halogen demand water, SDW, pH 9.5, 48.0 hrs, read-out: Percent Halogen Remaining): 94.5%
- remaining at 72 h ([1]; synthetic halogen demand water, SDW, pH 9.5, 72.0 hrs, read-out: Percent Halogen Remaining): 94.1%
- remaining at 122 h ([1]; synthetic halogen demand water, SDW, pH 9.5, 122.0 hrs, read-out: Percent Halogen Remaining): 94.1%
- stability (in words) ([2]; pH 7): more stable than Compound 1 and considerably more stable than free chlorine (Compound 2) in DFW at pH 7.0 and 22 °C
- bactericidal efficiency (in words) (bacteria; Table V conditions): least efficient
- inactivation (bacteria; all conditions tested, given sufficient contact time): greater than 99.9999%
- killing at 5 ppm [3, 6]: 87.4%
- killing at 5 ppm [3, 7]: 0%
- killing at 10 ppm [3, 8]: 2.86%
- killing at 5 ppm [3, 9]: 32.7%
- killing at 5 ppm [3, 10]: 96.3%
- killing at 5 ppm [3, 11]: 4.42%
- killing at 10 ppm [3, 12]: 0%
- killing at 5 ppm [3, 13]: 50.2%

Structure (SMILES): CC1(C)C(=O)N(Cl)C(C)(C)N1Br [Compound 5, 1-bromo-3-chloro-2,2,5,5-tetramethylimidazolidin-4-one]
- stability (in words) [1]: comparable in stability to free chlorine under these conditions
- remaining at 0.008 h ([1]; synthetic halogen demand water, SDW, pH 9.5, 0.008 hrs, read-out: Percent Halogen Remaining): 64%
- remaining at 0.167 h ([1]; synthetic halogen demand water, SDW, pH 9.5, 0.167 hrs, read-out: Percent Halogen Remaining): 49.9%
- remaining at 0.5 h [1, 5]: 47.1%
- remaining at 1 h ([1]; synthetic halogen demand water, SDW, pH 9.5, 1.0 hrs, read-out: Percent Halogen Remaining): 47.4%
- remaining at 4 h ([1]; synthetic halogen demand water, SDW, pH 9.5, 4.0 hrs, read-out: Percent Halogen Remaining): 41.9%
- remaining at 24 h [1, 5]: 38.2%
- remaining at 94 h ([1]; synthetic halogen demand water, SDW, pH 9.5, 94.0 hrs, read-out: Percent Halogen Remaining): 31.8%
- remaining at 23.52 h ([2]; pH 7): 97.3%
- remaining at 119.28 h ([2]; pH 7): 95.4%
- remaining at 168 h ([2]; pH 7): 91.7%
- remaining at 336 h ([2]; pH 7): 88.2%
- remaining at 504 h ([2]; pH 7): 75%
- remaining at 672 h ([2]; pH 7): 45.9%
- remaining at 840 h ([2]; pH 7): 17.5%
- remaining at 1008 h ([2]; pH 7): 7.6%
- remaining at 23.52 h ([2]; pH 9.5): 96.3%
- remaining at 119.28 h ([2]; pH 9.5): 89.5%
- remaining at 168 h ([2]; pH 9.5): 88.3%
- remaining at 336 h ([2]; pH 9.5): 86.3%
- remaining at 504 h ([2]; pH 9.5): 70.8%
- remaining at 672 h ([2]; pH 9.5): 60.8%
- remaining at 840 h ([2]; pH 9.5): 46.8%
- remaining at 1008 h ([2]; pH 9.5): 38.4%
- stability (in words), against free chlorine ([2]; pH 9.5): comparable in stability to free chlorine (see data in example 9) at pH 9.5 only
- killing at 5 ppm ([4]; ATCC27853, 5 min, 5 minutes): > 100%
- killing at 5 ppm ([4]; ATCC27853, 10 min, 10 minutes): > 100%
- reduction of bacteria (bacteria; all conditions, less than or equal 5 minutes of contact time, even in SDW): greater than 99.9999%
- killing at 5 ppm [3, 6]: > 100%
- killing at 5 ppm [3, 7]: > 100%
- killing at 5 ppm [3, 8]: > 100%
- killing at 10 ppm [3, 8]: > 100%
- killing at 5 ppm [3, 9]: > 100%
- killing at 5 ppm [3, 10]: > 100%
- killing at 5 ppm [3, 11]: > 100%
- killing at 5 ppm [3, 12]: > 100%
- killing at 10 ppm [3, 12]: > 100%
- killing at 5 ppm [3, 13]: > 100%
